Measured values as given in a melting point compilation (Tetko et al.; mined from patent text by program, amines drawn as free bases though some values may be those of a salt).

Row | Compound | melting point [°C]
1 | O=c1c2cc(F)c(Cl)nc2n(-c2ccccc2F)c(=O)n1OCc1ccccc1 | 199 to 200
2 | CC(C)c1nc2c(nc1C(C)C)-c1c(c(-c3ccc(C(=O)O)cc3)cn1Cc1cccnc1)CC2 | 100 to 102
3 | CCOC(=O)N1CCN(c2ccncc2N)CC1 | 141 to 142
4 | CCOC(=O)c1cc2c(nc1C(=O)OCC)OCC2O (centres undefined) | 73 to 77
5 | Cn1nnnc1-c1cccc(Oc2cccc(C(F)(F)F)c2)n1 | 92 to 94
6 | COC(=O)c1cc(C#CC(C)(C)O)cnc1C1=NC(C)(C(C)C)C(=O)N1 (centres undefined) | 142 to 145
7 | Cc1nc2cccc3n(CCCCNS(=O)(=O)CC(F)(F)F)c(=O)c1n23 | 116 to 118
8 | Cc1c(-c2ccccc2)c(N2CC[C@H](N(C)C)C2)c2oc(N3CC(O)C3)nc2c1C#N | 219 to 221
9 | CC1N(c2cc(CC(Cl)C(=O)O)c(Cl)cc2Cl)NC(=O)N1C(F)F (centres undefined) | 138 to 141
10 | CCOC(=O)C=Cc1c[nH]c2cnc(-n3cncn3)cc12 | 235 to 238
11 | CC(Cc1c[nH]c2ccc(N)cc12)[N+](=O)[O-] (centres undefined) | 120 to 122
12 | COC(=O)c1cc(C(=O)O)cc(C(=O)OC)c1C(=O)OC | 143 to 144
13 | CCCOc1ccc(F)cc1C(=O)O | 76 to 78
14 | Cc1cc(O)c(S(=O)(=O)CC2CCCCC2)c(=O)o1 | 104 to 106
15 | Cc1cccc(NC(=O)NC2N=C(CC(C)C)c3cccc(C)c3N(CC(=O)N3CCCCCCC3)C2=O)c1 (centres undefined) | 132 to 133
16 | CCOc1cc(CN2CCN(c3ccc(C(=O)NC)cc3)CC2)cc2c1OC(C)C(=O)N2 (centres undefined) | 228 to 233
17 | CCOC(=O)C1=C(C)NC(c2cnc(N)s2)=NC1c1ccc(F)cc1Cl (centres undefined) | 132 to 135
18 | CCN1C(=O)Nc2ccc(Cl)cc2C1(O)c1ccccc1 (centres undefined) | 182 to 184
19 | COc1ccc2c(c1)NCCO2 | 59 to 61
20 | COc1ccc(C(=O)c2cccs2)c2occ(C)c12 | 131 to 134
21 | O=C(c1ccn2c1CSC2c1cccnc1)c1c[nH]c2cc(Cl)ccc12 (centres undefined) | 263 to 265
22 | C=CCOc1ccc(Nc2ccn(-c3ccccc3)n2)cc1 | 80 to 81
23 | COC(=O)CCCC#Cc1cc(Cl)ccc1NS(=O)(=O)c1ccc2c(c1)C(C)(C)CCC2(C)C | 113 to 115

Row | Compound | melting point [°C]
24 | CCOC(=O)C1=C(c2ccc(OC)cc2)Nc2n[nH]cc2C1c1ccccc1Cl (centres undefined) | 211
25 | Cc1ccnc(C(=O)c2[nH]c3ccc(Cl)cc3c2CC(=O)NCCN)c1 | 166
26 | CC(=O)c1sccc1CBr | 62 to 64
27 | CC(C)C=CC1(C(F)(F)F)OCC(=O)Nc2ccc(F)cc21 (centres undefined) | 145 to 156
28 | CC1C(=S)Nc2c(F)cc(F)cc21 (centres undefined) | 151 to 152
29 | COC(=O)c1cc(C(=O)OC)n(C(c2ccccc2)(c2ccccc2)c2ccccc2)n1 | 212 to 214
30 | COC1CCc2c(C)c(O)c(C)c(C)c2O1 (centres undefined) | 108 to 110
31 | CC(C)(C)OC(=O)N1CCC(NC(=O)Nc2ccc(OC(F)(F)F)cc2)CC1 | 160 to 162
32 | COc1ccc(C)cc1NC(=O)Nc1ccc(N2CCN(C(=O)Oc3ccccc3)CC2)cc1 | 179
33 | CC(C)CC(=O)Nc1cccc(-c2ccnc3c(C(=O)c4ccsc4)cnn23)c1 | 137 to 139
34 | CCC(Oc1ccc(C)cc1C)C(=O)OC1CC(O)C=C2C=CC(C)C(CCC3CC(O)CC(=O)O3)C21 (mixture of isomers) | 159 to 160
35 | Cc1nc(C)c(C(=O)c2ccoc2)o1 | 73.5 to 74.5
36 | COC(=S)c1nc(-c2ccccc2)c(N)nc1N | 210
37 | Cc1cccc(Cl)c1NC(=O)Nc1cc(N[C@H]2CC[C@H](O[Si](C)(C)C(C)(C)C)CC2)ncn1 | 218 to 220
38 | COc1ccc(-c2ccc(N3CCCN(c4ccc(-c5ccc(OC)c(OC)c5)cn4)CC3)nc2)cc1OC | 190 to 192
39 | O=C(O)C(=O)Nc1c(-c2ccccc2)c(=O)[nH]c2cc(Cl)ccc12 | 240
40 | Cc1ccc(C(=S)c2[nH]c3cc(Cl)ccc3c2N)cc1 | 172 to 173
41 | CCC(=O)Oc1c(OC)c(OC)c(OC(C)=O)c2ccc(Cl)cc12 | 86 to 87
42 | CC(=O)NC[C@H]1CN(c2ccc(-c3noc(C(N)=O)n3)c(F)c2)C(=O)O1 | 218 to 220
43 | N#Cc1ccc(CN2C(=O)C3(COc4cc5c(cc43)CCO5)c3ccccc32)cc1 (centres undefined) | 69 to 71
44 | O=C(O)c1cc(C(=O)O)cc(N2C(=O)C=CC2=O)c1 | > 300
45 | CC(C)N[C@H](C(=O)O)C(C)C | > 300
46 | CCOC(=O)c1cn(C)nc1C(F)(F)F | 61.5 to 63.1

Row | Compound | melting point [°C]
47 | CCOC(=O)c1c(N2CCN(C(=O)c3ccco3)CC2)c2cc(F)cnc2n(Cc2cccc(F)c2)c1=O | 121
48 | Cn1c(COc2ccc(CC3SC(=O)NC3=O)cc2)nc2ccc(Oc3ccc4cccc(NC(=O)Nc5ccc(C(F)(F)F)cc5)c4c3)cc21 (centres undefined) | 250 to 254
49 | O=Cc1cc([N+](=O)[O-])c(O)c(O)c1Cl | 193 to 195
50 | NC(=O)COc1ccccc1C(=O)Nc1ccc(C(=O)N2CCCC(=O)c3ccccc32)cc1 | 226 to 228
51 | Cn1c(=S)ccc2ccccc21 | 114
52 | CC1(C)OC[C@H](c2cnc(NC(=O)C(C)(C)C)cn2)O1 | 142 to 143
53 | COC(=O)C(Cc1ccc(OCCc2nc(-c3ccccc3)oc2C)cc1)C(N)=O (centres undefined) | 155
54 | COC1(C)c2ccc(C#Cc3cc(Cl)ccc3OCC(=O)O)cc2S(=O)(=O)C1(C)C (centres undefined) | 80 to 95
55 | OCC(Nc1ncnc2nc[nH]c12)c1ccccc1 (racemic) | 130 to 138
56 | CC(C)n1nc(-c2sc(NC(=O)c3ccc(I)cc3)nc2-c2ccccc2)ccc1=O | 253 to 254
57 | Cc1ccc(C2CCN(c3c(C)c(C)c4c(c3C)[C@@H](c3ccc(C)cc3)C(C)(C)O4)CC2)cc1 | 165 to 167
58 | CC(c1cc(Cl)cc(Cl)c1O)c1cc(F)cc(Cc2cc(Cl)ccc2O)c1O (centres undefined) | 166
59 | COc1cccc(C(=O)Nc2nnn[nH]2)c1N | 268 to 269
60 | O=C(CNCc1cccc(C(F)(F)F)c1)Nc1cccc2c1C(=O)c1c(NC(=O)CNCc3cccc(C(F)(F)F)c3)cccc1C2=O | 190 to 191
61 | Cc1ncc(CN2C(=O)c3ccccc3C2=O)n1-c1ccc(Cl)cc1Cc1ccccc1F | 152 to 156
62 | O=C(CCCc1ccccc1)N[C@H](Cc1ccc(C(F)(F)F)cc1)[C@@H](O)c1ccc(F)cc1 (racemic) | 150 to 151
63 | O=C(CC(C(=O)O)c1ccccc1)Nc1cccc(/C=C/c2nc(C3CCC3)cs2)c1 (centres undefined) | 202 to 203
64 | CCN1C(=O)Cc2cc(C(=O)OC)ccc21 | 97 to 98
65 | COc1ccc(COc2c(C)c(C)c3c(c2C)C(c2ccc(C(C)C)cc2)C(C)(C)O3)cc1 (centres undefined) | 95 to 96
66 | COc1cccc([C@H]2O[C@H](CC(=O)Nc3cc(CCC(=O)O)ccc3F)C(=O)N(CC(C)(C)CO)c3ccc(Cl)cc32)c1OC | 151 to 152
67 | CCCCCN1C(=O)C(CCC(=O)OC)(NC(=O)C2CCc3ccccc3C2)c2ccccc21 (centres undefined) | 172 to 179
68 | COC(=O)C(NC(CO)c1ccccc1)C1CC2CCC(C1)N2 (centres undefined) | 124

Second part, the compound after the results:

Row | melting point [°C] | Compound
69 | 173 to 180 | COc1cc(C)nc(NC(=O)NS(=O)(=O)c2cccc(NC(=O)OC(C)C)c2)n1
70 | 129 to 132 | COc1ccc(OC)c2c1[C@H](C=O)c1ccccc1[C@@H]2C=O
71 | 63.5 to 65 | CC(C)(N)CCOc1ccc(Cl)nn1
72 | 67 to 69 | CC(Oc1cc(O)ccn1)C(F)(F)F (centres undefined)
73 | 192 | Cc1cc(N)c([N+](=O)[O-])cc1NC(=O)OCCCl
74 | 50 to 52 | CCOC(=O)N(C)n1cccc1C(=O)c1ccccc1
75 | 137 to 138 | CC(C)(C)OC(=O)COc1cc2cc(C(C)(C)O)sc2c(Cl)c1Cl
76 | 65 to 70 | COC12c3ccc(Cl)cc3CC1SC(=CN)N2C (centres undefined)
77 | > 250 | O=c1[nH]cc(-c2cnccn2)cc1Br
78 | 236 to 239 | Cn1c(CNC(=O)Nc2cccc(C(=O)O)c2)c(-c2ccccc2)c2cc(Cl)ccc2c1=O
79 | 125 to 128 | CCOC(=O)C(=NOC)c1csc(NC(=O)OCC(Cl)(Cl)Cl)n1
80 | 169 to 172 | CS(=O)(=O)c1ccc(SC2SCC(O)C(O)C2O)cc1 (centres undefined)
81 | 116 to 118 | Cc1ccc(NS(=O)(=O)c2cc(S(=O)(=O)Nc3ccc(C)cc3C)c3cc(O)ccc3c2)c(C)c1
82 | 133 to 134 | CCC(=O)N(C(=O)CC)c1c(C#N)cnn1-c1ccc(Cl)c(Cl)c1Cl
83 | 127 to 130 | CC(C)C(=O)N[C@@H](CS)C(=O)NCCSC(=O)c1ccccc1
84 | 62 to 69 | O=C(CCCC1CCCCCCCCCCC1)C1=C(O)CSC1=O

Row | melting point [°C] | Compound
85 | 218 to 220 | COCCOc1cc2ncnc(NC3=CC(=O)C(OCc4ccccc4)=CC3=O)c2cc1OC
86 | 109 to 111 | CCCC(C)(CCC)C(=O)O[C@H]1C[C@H](O)C=C2C=C[C@H](C)[C@H](CC[C@@H]3C[C@@H](O)CC(=O)O3)[C@H]21
87 | 34 to 35.3 | C=CC(=O)OCCCCCCC[C@H]1CC[C@H](c2cccc(F)c2F)CC1
88 | 80 to 81 | OCCOCCn1c2ccccc2c2ccccc21
89 | 219 to 222 | CCn1cc(C(=O)O)c(=O)c2cc(F)c(N3CCN(c4ccccc4OC)CC3)c(OC(F)F)c21
90 | 38 to 40 | Cc1nc2c(cc1C=O)CCCCC2
91 | 210 to 212 | CCn1cc(C=CC(N)=O)c([N+](=O)[O-])n1
92 | 59 to 60 | CCOC(=O)Cc1nc(-c2ccc(F)cc2)oc1C(C)C
93 | 226 to 227 | NC(=O)CCn1c(=S)sc2ccccc21
94 | 148 to 149 | CC(=O)C(O)C1OC(n2cc(F)c(=O)[nH]c2=O)CC1(O)C(C)=O (centres undefined)
95 | 187 to 189 | CCn1c(-c2c(Cl)cccc2Cl)nc(-c2ccnc(Cl)c2)c1-c1ccc(Cl)cc1
96 | 194 | CC(C)CCNC(=O)c1ccccc1-c1ccccc1CNC(=O)Nc1ccccc1
97 | 282 | NS(=O)(=O)c1ccc(-c2cc(-c3nc(-c4ccc(F)cc4)cc(C(F)(F)F)n3)ccn2)s1
98 | 129 to 130 | Cn1ccc(-c2ccc(F)cc2)c1-c1ccc(F)cc1
99 | 99 to 101 | COc1ccc2[nH]c(C)c(Cc3cc(=O)n(C4CCCCC4)[nH]3)c2c1
